The source of these data is patent US7105538B2, “2-pyrrolidin-2-yl-[1,3,4]-oxadiazole compounds and their use as anti-depressants” (Gruenenthal GmbH, priority 2002, dated 2006).

Structures are written as SMILES.

In the first test the test system is 5HT uptake (serotonin re-uptake), synaptosomes from rat brain. Nature of the test: Inhibition of serotonin re-uptake (5HT-uptake inhibition) in rat brain synaptosomes. Format: biochemical. The following applies: synaptosomes (P2 fraction) from medulla+pons region of male rats' brains; test concentration not given. On the procedure:
Tests of Inhibition of Serotonin Re-Uptake (5HT-Uptake Inhibition)
To be able to carry out these studies in vitro, synaptosomes were freshly isolated from rat brain areas. What is known as a “P2” fraction was used in each case. This was prepared in accordance with Gray and Whittaker's directions (E. G. Gray and V. P. Whittaker (1962) J. Anat. 76, 79–88). These vesicular particles were isolated from the medulla+pons region of male rats' brains for 5HT uptake. A detailed description of the method may be found in the literature (M. Ch. Frink, H.-H. Hennies, W. Englberger, M. Haurand and B. Wilffert (1996) Arzneim. -Forsch./Drug Res. 46 (III), 11,1029–1036). The 5HT-uptake inhibition of the following compounds was tested by way of example: […]
For `COc1ccc(OC)c(CS(=O)(=O)N2CCCC2c2nnc(-c3cccnc3)o2)c1` (centres unmarked) [Example 30, 3-{5-[1-(2,5-dimethoxyl-benzylsulfonyl)-pyrrolidin-2-yl]-[1,3,4]oxadiazol-2-yl}-pyridine], the “5HT uptake, % inhibition” value is reported as 60%. On to `CCOC(=O)CCC(=O)N1CCCC1c1nnc(-c2ccncc2)o1` (centres unmarked) [Example 4, 4-oxo-4-[2-(5-pyridin-4-yl-[1,3,4]oxadiazol-2-yl)-pyrrolidin-1-yl]-butyric acid ethyl ester], for which the “5HT uptake, % inhibition” value came to 72%.

On to `O=C(c1cc(C(F)(F)F)ccc1C(F)(F)F)N1CCCC1c1nnc(-c2ccc(Cl)cc2)o1` (centres unmarked) [Example 164, (2,5-bis-trifluoromethyl-phenyl)-{2-[5-(4-chloro-phenyl)-[1,3,4]oxadiazol-2-yl]-pyrrolidin-1-yl}-methanone], for which the “5HT uptake, % inhibition” value stood at 80%. On to `O=C(c1c(F)cccc1F)N1CCCC1c1nnc(-c2ccncc2)o1` (centres unmarked) [Example 101, (2,6-difluoro-phenyl)-[2-(5-pyridin-4-yl-[1,3,4]oxadiazol-2-yl)-pyrrolidin-1-yl]-methanone], for which the “5HT uptake, % inhibition” value stood at 54%. As to `COc1cccc(-c2nnc(C3CCCN3C(=O)c3ccnc(Cl)c3)o2)c1` (centres unmarked) [Example 94, (2-chloro-pyridin-4-yl)-{2-[5-(3-methoxy-phenyl)-[1,3,4]oxadiazol-2-yl]-pyrrolidin-1-yl}-methanone], the “5HT uptake, % inhibition” value is listed as 50%. For the molecule `O=C(C=Cc1ccccc1)N1CCCC1c1nnc(-c2ccccc2)o1` (centres unmarked) [Example 84, 3-phenyl-1-[2-(5-phenyl-[1,3,4]oxadiazol-2-yl)-pyrrolidin-1-yl]-propenone], the “5HT uptake, % inhibition” value is on record as 61%. Same read-out and setting: then `CC1(C)C2CCC1(CS(=O)(=O)N1CCCC1c1nnc(-c3ccncc3)o1)C(=O)C2` (centres unmarked) [Example 7, 7,7-dimethyl-1-[2-(5-pyridin-4-yl-[1,3,4]oxadiazol-2-yl)-pyrrolidin-1-sulfonylmethyl]-bicyclo[2.2.1]heptan-2-one], with 64%; and `COc1ccc(CC(=O)N2CCCC2c2nnc(-c3ccncc3)o2)cc1OC` (centres unmarked) [Example 13, 2-(3,4-dimethoxy-phenyl)-1-[2-(5-pyridin-4-yl-[1,3,4]oxadiazol-2-yl)-pyrrolidin-1-yl]-ethanone], with 67%. Consider `O=C(N1CCc2ccc(S(=O)(=O)N3CCCC3c3nnc(-c4ccncc4)o3)cc2C1)C(F)(F)F` (centres unmarked) [Example 182, 2,2,2-trifluoro-1-{7-[2-(5-pyridin-4-yl-[1,3,4]oxadiazol-2-yl)-pyrrolidin-1-sulfonyl]-3,4-dihydro-1H-isoquinolin-2-yl}-ethanone], for which the “5HT uptake, % inhibition” value is given as 52%. `O=C(c1cc(C(F)(F)F)ccc1C(F)(F)F)N1CCCC1c1nnc(-c2cccs2)o1` (centres unmarked) [Example 165, (2,5-bis-trifluoromethyl-phenyl)-[2-(5-thiophen-2-yl-[1,3,4]oxadiazol-2-yl)-pyrrolidin-1-yl]-methanone]: the “5HT uptake, % inhibition” value was found to be 76%. Consider `CCOc1ccc(C(=O)N2CCCC2c2nnc(-c3ccccc3)o2)cc1` (centres unmarked) [Example 109, (4-ethoxy-phenyl)-[2-(5-phenyl-[1,3,4]oxadiazol-2-yl)-pyrrolidin-1-yl]-methanone], for which the “5HT uptake, % inhibition” value was 54%. `O=C(c1cccnc1Cl)N1CCCC1c1nnc(-c2ccncc2)o1` (centres unmarked) [Example 6, (2-chloro-pyridin-3-yl)-[2-(5-pyridin-4-yl-[1,3,4]oxadiazol-2-yl)pyrrolidin-1-yl]-methanone]: the “5HT uptake, % inhibition” value was determined as 84%.

For the molecule `COc1ccc(C(=O)N2CCCC2c2nnc(-c3ccncc3)o2)c(OC)c1` (centres unmarked) [Example 5, (2,4-dimethoxy-phenyl)-[2-(5-pyridin-4-yl-[1,3,4]oxadiazol-2-yl)-pyrrolidin-1-yl]methanone], the “5HT uptake, % inhibition” value amounted to 81%. With `Cc1cc(C)c(CS(=O)(=O)N2CCCC2c2nnc(-c3ccccc3F)o2)c(C)c1` (centres unmarked) [Example 61, 2-(2-fluoro-phenyl)-5-[1-(2,4,6-trimethyl-benzylsulfonyl)-pyrrolidin-2-yl]-[1,3,4]oxadiazole], the “5HT uptake, % inhibition” value was 50%.

In the case of `O=C(COc1ccc(Cl)cc1)N1CCCC1c1nnc(-c2ccncc2)o1` (centres unmarked) [Example 67, 2-(4-chloro-phenoxy)-1-[2-(5-pyridin-4-yl-[1,3,4]oxadiazol-2-yl)-pyrrolidin-1-yl]-ethanone], the “5HT uptake, % inhibition” value turned out to be 50%. In the case of `COc1cccc(-c2nnc(C3CCCN3C(=O)c3ccc(Br)cc3)o2)c1` (centres unmarked) [Example 92, (4-bromo-phenyl)-{2-[5-(3-methoxy-phenyl)-[1,3,4]oxadiazol-2-yl]-pyrrolidin-1-yl}-methanone], the “5HT uptake, % inhibition” value amounted to 58%. For `CCCc1c(C(=O)N2CCCC2c2nnc(-c3cccnc3)o2)cnn1-c1ccccc1` (centres unmarked) [Example 166, (1-phenyl-5-propyl-1H-pyrazol-4-yl)-[2-(5-pyridin-3-yl-[1,3,4]oxadiazol-2-yl)-pyrrolidin-1-yl]-methanone], the “5HT uptake, % inhibition” value came to 78%. Still for that read-out and setting: then `O=S(=O)(c1cc(Cl)c(Cl)s1)N1CCCC1c1nnc(-c2ccncc2)o1` (centres unmarked) [Example 22, 4-{5-[1-(4,5-dichloro-thiophene-2-sulfonyl)-pyrrolidin-2-yl]-[1,3,4]oxadiazol-2-yl}-pyridine], with 60%. `Cc1ccc(CS(=O)(=O)NC(Cc2ccccc2)C(=O)N2CCCC2c2nnc(-c3ccncc3)o2)cc1` (centres unmarked) [Example 21, N-{1-benzyl-2-oxo-2-[2-(5-pyridin-4-yl-[1,3,4]oxadiazol-2-yl)-pyrrolidin-1-yl]-ethyl}-4-methyl-benzylsulfonamide]: the “5HT uptake, % inhibition” value turned out to be 53%.

For the molecule `Cc1nn(-c2ccccc2)nc1C(=O)N1CCCC1c1nnc(-c2ccncc2)o1` (centres unmarked) [Example 85, (5-methyl-2-phenyl-[1,2.3]triazol-4-yl)-[2-(5-pyridin-4-yl-[1,3,4]oxadiazol-2-yl)-pyrrolidin-1-yl]-methanone], the “5HT uptake, % inhibition” value is reported as 61%. Still for that read-out and setting: then `O=S(=O)(Cc1ccc(F)cc1F)N1CCCC1c1nnc(-c2cccnc2)o1` (centres unmarked) [Example 86, 3-{5-[1-(2,4-difluoro-benzylsulfonyl)-pyrrolidin-2-yl]-[1,3,4]oxadiazol-2-yl}-pyridine], with 73%; and `O=S(=O)(Cc1ccc(OC(F)(F)F)cc1)N1CCCC1c1nnc(-c2cccnc2)o1` (centres unmarked) [Example 134, 3-{5-[1-(4-trifluoromethoxy-benzylsulfonyl)-pyrrolidin-2-yl]-[1,3,4]oxadiazol-2-yl}-pyridine], with 55%; and `O=C(c1ccc(Cl)cc1)N1CCCC1c1nnc(-c2ccc(-c3ccccc3)cc2)o1` (centres unmarked) [Example 14, [2-(5-biphenyl-4-yl-[1,3,4]oxadiazol-2-yl)-pyrrolidin-1-yl]-(4-chloro-phenyl)-methanone], with 69%. For the molecule `Cc1nc(C(F)(F)F)ccc1C(=O)N1CCCC1c1nnc(-c2ccccc2)o1` (centres unmarked) [Example 174, (2-methyl-6-trifluoromethyl-pyridin-3-yl)-[2-(5-phenyl-[1,3,4]oxadiazol-2-yl)-pyrrolidin-1-yl]-methanone], the “5HT uptake, % inhibition” value is given as 61%. As for `CN(C)c1cccc(C(=O)N2CCCC2c2nnc(-c3cccnc3)o2)c1` (centres unmarked) [Example 12, (3-dimethyamino-phenyl)-[2-(5-pyridin-3-yl-[1,3,4]oxadiazol-2-yl)-pyrrolidin-1-yl]-methanone], the “5HT uptake, % inhibition” value came to 54%. Consider `COc1cccc(-c2nnc(C3CCCN3C(=O)c3cccc(F)c3F)o2)c1` (centres unmarked) [Example 173, (2,3-difluoro-phenyl)-{2-[5-(3-methoxy-phenyl)-[1,3,4]oxadiazol-2-yl]-pyrrolidin-1-yl}-methanone], for which the “5HT uptake, % inhibition” value is 62%. Take `O=C(c1ccc(SC(F)(F)F)cc1)N1CCCC1c1nnc(-c2ccccc2)o1` (centres unmarked) [Example 181, [2-(5-phenyl-[1,3,4]oxadiazol-2-yl)-pyrrolidin-1-yl]-(4-trifluoromethylsulfanyl-phenyl)-methanone]: the “5HT uptake, % inhibition” value amounted to 62%.

Another test concerns phenylquinone-induced writhing in mice. Nature of the test: Analgesic efficacy by phenylquinone-induced writhing in mice. The following applies: male NMRI mice; 10 mg/kg i.v., 10 min before phenylquinone i.p.; writhing counted 5-20 min after phenylquinone. Format: in vivo. As for the experimental part:
Investigation of Analgesic Efficacy by Testing Writhing in Mice
The investigation into analgesic efficacy was performed by phenylquinone-induced writhing in mice (modified after: I. C. Hendershot and J. Forsaith (1959), J. Pharmacol. Exp. Ther. 125, 237–240). Male NMRI mice weighing from 25 to 30 g were used for this purpose. 10 minutes after intravenous administration of the compounds tested, groups of 10 animals per substance dose received 0.3 ml/mouse of a 0.02% aqueous solution of phenylquinone (phenylbenzoquinone, Sigma, Deisenhofen; solution prepared by adding 5% of ethanol and stored in a water bath at 45° C.) administered intraperitoneally. The animals were placed individually into observation cages. A pushbutton counter was used to record the number of pain-induced stretching movements (writhing reactions=straightening of the torso with stretching of the rear extremities) for 5–20 minutes after phenylquinone administration. The control was provided by animals which received only physiological common salt solution. All substances were tested at the standard dosage of 10 mg/kg. The percentage inhibition (% inhibition) of the writhing reactions by a substance was calculated according to the following formula: […]
As to `CCCCC(=O)N1CCCC1c1nnc(-c2cccc(Cl)c2)o1` (centres unmarked) [Example 248, 1-{2-[5-(3-chloro-phenyl)-[1,3,4]oxadiazol-2-yl]-pyrrolidin-1-yl}-pentan-1-one], the “% inhibition of writhing reaction by intravenous administration of 10 mg/kg” value is 45%.

`O=C(CCC1CCCC1)N1CCCC1c1nnc(-c2cccc(Cl)c2)o1` (centres unmarked) [Example 247, 1-{2-[5-(3-chloro-phenyl)-[1,3,4]oxadiazol-2-yl]-pyrrolidin-1-yl}-3-cyclopentyl-propan-1-one]: the “% inhibition of writhing reaction by intravenous administration of 10 mg/kg” value was found to be 33%.
